In patent US4604383A, “Pyrrolidin-2-ones and medicaments containing them” (Societe Anonyme Styled: SANOFI, priority 1983, dated 1986):
Like-named read-outs stand apart in the source and are kept apart here.

Columns and labels:
[1] = Acute toxicity, determination of the lethal dose in the mouse; settings: in vivo, po, read-out: Percent toxicity (animals which die in 72 hours)
Procedure: The toxicity of the products according to the invention was studied: the products were administered orally, to batches of 5 CD Charles Rivers female mice, of weights comprised between 20 and 24 g. The toxicity was noted during the 72 hours which followed the administration of the products.
The results expressed as a percentage of animals which die in the 72 hours following the oral administration of the products, are noted in the preceding table.

[2] = Effect on spontaneous motility (Boissier and Simon activity test, actimetric cages); format: in vivo, mouse (CD1 Charles Rivers female mice); settings: mouse; for Locomotor activity, score percent/controls: 100 mg/kg p.os., 45 min after administration, 10 min recording, * P <= 0.05, ** P <= 0.01; for Effect on spontaneous motility (in words): oral dose of 100 mg/kg
Procedure: The spontaneous motility of the animals was measured by means of the activity test developed by Boissier and Simon, Arch. Int. Pharmacocyn., 1965, 158, 212-221. The equipment is composed of actimetric cages, type Apelab (26×21.5×10 cm), traversed by two light rays which fall on a photoelectric cell. The batches were constituted by CD1 Charles Rivers female mice, of weight comprised between 20 and 24 g. The animals were placed individually in cages 45 minutes after oral administration of the products at the dose of 100 mg/kg. Each traversal by a light beam was counted by an individual counter. The scores corresponding to the movements of the animals were recorded for 10 minutes, and compared with the scores taken on batches of control animals, treated only with the vehicle (5% gum arabic).

[3] = Antagonism to the convulsions caused by 3-mercaptopropionic acid; format: in vivo, mouse (CD Charles Rivers mice); settings: mouse, oral, 60 min before 3-mercaptopropionic acid 60 mg/kg s.c.; probit method, confidence limits in parentheses, p <= 0.05; read-out: Median effective dose (ED50) of antagonism to convulsions caused by 3-mercaptopropionic acid
Procedure: (§1) The anticonvulsant effect of the products in the mouse was evaluated on a model of convulsions caused by electric shock, and on 2 models of convulsions induced by chemical agents: bicuculline and 3-mercaptopropionic acid.
The batches were constituted by 10 CD Charles Rivers mice of weights comprised between 20 and 22 g. The products were administered orally 60 minutes before the 3-mercaptopropionic acid (60 mg/kg s.c.).

[4] = Potentiation of narcosis with pentobarbital (loss of righting reflex); format: in vivo, mouse (CD1 Charles Rivers mice); settings: mouse, 60 min before pentobarbital 20 mg/kg i.p.; for Potentiation of pentobarbital, percent of animals in narcosis: products at 100 mg/kg p.os.; for ED50: po, p.os., probit method, confidence limits in parentheses, P <= 0.05
Procedure: For the purpose of evaluating the hypnogenic power of the products, their capacity to potentiate the effects of a subnarcotic dose of pentabarbital in the mouse was studied. The batches were constituted by 10 CD1 Charles Rivers mice, of weight comprised between 20 and 24 g.
The pentobarbital (20 mg/kg, i.p.) was administered 60 minutes after administration of the products. The drowsiness criterion taken was the loss of the righting reflex.

[5] = Antagonism of the convulsions induced by electric shock; format: in vivo, mouse (CD1 Charles Rivers mice); settings: mouse, oral, 60 min before electroshock; probit method, confidence limits in parentheses, p <= 0.05; read-out: Median effective dose (ED50) of electric shock antagonism
Procedure: as §1
The test was slightly modified from that of Swinyard et al., J. Pharm. Exp. Ther., 1952, 106, 319-330 and Asami et al. Arzneim. Forsch., 1974, 24 (1), 1563-1568. The equipment was composed of a Racia shock generator provided with two occular electrodes delivering a current of 60 volts for 0.3 seconds. The batches were constituted by 10 CD1 Charles Rivers mice of weight comprised between 20 and 24 g. The products were administered orally, 60 minutes before the electroshock.

[6] = Antagonism of convulsions and of mortality caused by bicucullin; format: in vivo, mouse (CD Charles Rivers mice)
Procedure: as §1
The batches were constituted by 10 CD Charles Rivers mice of weights comprised between 20 and 22 g. The products were administered orally, 60 minutes before the bicucullin (0.8 mg/kg, i.v.).

[7] = Mus musculus, po, read-out: Median effective dose (ED50) of the antagonism to the effects of bicucullin: Mortality
[8] = mouse, oral, 60 min before bicucullin 0.8 mg/kg i.v., probit method, confidence limits in parentheses, p < 0.05, read-out: Median effective dose (ED50) of the antagonism to the effects of bicucullin: Tonic convulsions

Row | SMILES | mortality at 72 h ([1]; 250 mg/kg p.os.) [%] | mortality at 72 h ([1]; 500 mg/kg p.os.) [%] | mortality at 72 h ([1]; 1000 mg/kg p.os.) [%] | mortality at 72 h ([1]; 250 mg/kg) [%] | mortality at 72 h ([1]; 500 mg/kg) [%] | mortality at 72 h ([1]; 1000 mg/kg) [%] | Locomotor activity, score percent/controls [2] | Effect on spontaneous motility (in words) [2] | ED50 [3] [mg/kg] | Potentiation of pentobarbital, percent of animals in narcosis [4] [%] | ED50 [5] [mg/kg] | ED50 [6, 7] [mg/kg] | ED50 [6, 8] [mg/kg] | ED50 [4] [mg/kg]
1 | COc1ccc(CC2CC(c3ccccc3)C(=O)N2)cc1OC (centres unmarked) [SR 41773] | 0 | 0 |  |  |  |  |  |  |  |  |  |  |  | 
2 | Cc1ccc(CC2CC(C)(C)C(=O)N2)cc1 (centres unmarked) [SR 42003] | 0 | 0 | 0 |  |  |  |  |  |  |  |  |  |  | 
3 | C[C@@H]1C[C@@H](Cc2cccs2)NC1=O (relative stereo) [SR 42008, 3-methyl-5-(2-thienyl-methyl)-2-pyrrolidinone] |  |  |  | 0 | 0 | 0 | -52% | sedative activity characterized by a considerable reduction in the motility |  |  |  |  |  | 
4 | CC1CC(Cc2ccc(F)cc2)NC1=O (centres unmarked) [SR 41882, 5[(4-fluoro-phenyl)-methyl]-3-methyl-2-pyrrolidinone] | 0 | 0 | 100 |  |  |  |  |  | 41 | 20 |  |  |  | 
5 | CC1CC(Cc2c(F)cccc2Cl)NC1=O (centres unmarked) [SR 42004] | 0 | 0 | 0 |  |  |  |  |  | 27 | 30 | 34 | > 100 | ~100 | 
6 | CC1(C)CC(Cc2ccc(F)cc2)NC1=O (centres unmarked) [SR 41293, 3,3-dimethyl-5-[(4-fluoro-phenyl)-methyl]2-pyrrolidinone] | 0 | 0 | 80 |  |  |  |  |  | 20 | 80 | 99 | 41 | 90 | 56
7 | CC1CC(Cc2ccc(Cl)cc2)NC1=O (centres unmarked) [SR 42354] | 0 | 0 |  |  |  |  |  |  | 40 |  | 34 | 66 | 63 | 
8 | COc1ccc(CC2CC(C)(C)C(=O)N2)cc1OC (centres unmarked) [SR 41677] | 0 | 0 |  |  |  |  |  |  |  | 30 |  |  |  | 
9 | CC1(C)CC(Cc2ccccc2Cl)NC1=O (centres unmarked) [SR 41880] | 0 | 0 | 20 |  |  |  |  |  |  | 40 |  |  |  | 
10 | CC(C)C1CC(Cc2ccc(Cl)cc2)NC1=O (centres unmarked) [SR 42726] | 0 | 0 | 20 |  |  |  |  |  |  |  | 72 |  |  | 
11 | CC1(C)CC(Cc2ccccc2F)NC1=O (centres unmarked) [SR 41680] | 0 | 0 |  |  |  |  | +99% | stimulating effects of the motor activity | 54 |  | 51 |  |  | 
12 | CC1CC(Cc2cccc(Cl)c2)NC1=O (centres unmarked) [SR 42717] | 0 | 0 | 100 |  |  |  |  |  |  |  | 41 | 59 | ~100 | 
13 | C[Si](C)(C)C1CC(Cc2ccccc2)NC1=O (centres unmarked) [SR 42134] | 0 | 0 | 0 |  |  |  |  |  |  |  |  |  |  | 
14 | CCC1(C)CC(Cc2ccccc2F)NC1=O (centres unmarked) [SR 42001, 3-ethyl-5-[(2-fluoro-phenyl)-methyl]-3-methyl 2-pyrrolidinone] | 0 | 0 | 20 |  |  |  |  |  |  | 20 |  | 62 | 83 | 
15 | CC1(C)CC(Cc2cccc(C(F)(F)F)c2)NC1=O (centres unmarked) [SR 42725] | 0 | 0 | 0 |  |  |  |  |  |  |  | 34 | 66 | ~100 | 
16 | CCC1(C)CC(Cc2ccc(F)cc2)NC1=O (centres unmarked) [SR 42002] | 0 | 0 | 100 |  |  |  |  |  | 49 | 50 | 49 |  | ~100 | 
17 | CCCCC1([Si](C)(C)C)CC(Cc2ccccc2)NC1=O (centres unmarked) [SR 42133] | 0 | 0 | 0 |  |  |  |  |  |  |  |  |  |  | 
18 | CC1CC(Cc2ccccc2F)NC1=O (centres unmarked) [SR 41881] | 0 | 0 | 100 |  |  |  | +41% | stimulating effects of the motor activity | 46 | 30 | 92 |  |  | 
19 | CC1CC(Cc2ccc(Cl)cc2Cl)NC1=O (centres unmarked) [SR 41676] | 0 | 0 | 0 |  |  |  | -34% | sedative activity characterized by a considerable reduction in the motility | 23 | 100 |  |  |  | 48
20 | CC1(C)CC(Cc2ccc(Cl)cc2)NC1=O (centres unmarked) [SR 41873] | 0 | 0 |  |  |  |  |  |  | 48 | 10 | 62 | 85 | 112 | 
21 | CC1CC(Cc2ccccc2)NC1=O (centres unmarked) [SR 42010] | 0 |  |  |  |  |  |  |  | 44 |  | 105 |  |  | 
22 | CC1CC(Cc2ccccc2Cl)NC1=O (centres unmarked) [SR 41678] | 0 | 0 | 60 |  |  |  | +45% | stimulating effects of the motor activity | 53 | 30 | 44 |  | 76 | 
23 | C[C@H]1C[C@@H](Cc2cccs2)NC1=O (relative stereo) [SR 42009, 3-methyl-5-(2-thienyl-methyl)-2-pyrrolidinone] |  |  |  | 0 | 0 | 40 | -23% | sedative activity characterized by a considerable reduction in the motility |  |  |  |  |  | 
24 | CC1CC(Cc2cccc(C(F)(F)F)c2)NC1=O (centres unmarked) [SR 42401] | 0 | 0 |  |  |  |  |  |  |  |  | 39 | 72 | 62 | 
25 | CC1(C)CC(Cc2ccc(Cl)cc2Cl)NC1=O (centres unmarked) [SR 42508] | 0 | 0 | 0 |  |  |  |  |  |  |  | 50 | 73 | ~100 | 
